Reference: patent US4309425A (priority 1980, dated 1982)
Like-named read-outs stand apart in the source and are kept apart here.

Legend:
two-spotted mites = two-spotted mites on bean plants, spray, mortality after two days; assay type: in vivo; details: Tetranychus urticae, 48 h, read-out: % Mortality (2 days)
Protocol: Mortality was evaluated two days after spraying.
Mortality after two days is set forth below.

Venturia inaequalis [1] = experiment: apple scab preventive test; assay type: in vivo; details: 10-12 days
Protocol: (§1) Compounds of this invention are dissolved in acetone in an amount equal to 6% of the final volume and then suspended at a concentration of 20 ppm in purified water containing 25 ppm of the surfactant Alkanol® XC (sodium alkyl naphthalene sulfonate). This suspension is sprayed to the point of run-off on apple seedlings. The following day, the plants are inoculated with a spore suspension of the fungus Venturia inaequalis and incubated in a growth room for 10-12 days. Disease ratings are then made. […] Phytotoxicity in the form of foliar burn was observed on some of the plants in association with disease control.

Venturia inaequalis [2] = experiment: apple scab residual wash-off test; assay type: in vivo; details: 1/2 inch simulated rainfall, 10-12 days
Protocol: as §1, with “day, 1/2 inch of simulated rainfall is applied to the foliage of the plants. When the foliage is dry,” for “day,”, “on” for “on some of”

Venturia inaequalis [3] = experiment: apple scab photostability test; assay type: in vivo; details: xenon arc 3500 foot candles 16 hours, 10-12 days
Protocol: as §1, with “seedlings. When the foliage is dry, the plants are exposed to 3500 foot candles of light from a xenon arc source for a period of 16 hours. This light source approximates the spectrum of natural sunlight, and is used to assess photostability of the compounds of this invention on plant foliage.” for “seedlings.”

Erysiphe cichoracearum [4] = experiment: cucumber powdery mildew preventive test; assay type: in vivo; details: Golovinomyces cichoracearum, 168 h, 7 days
Protocol: as §1, with “cucumber” for “apple”, “Erysiphe cichoracearum” for “Venturia inaequalis”, “7” for “10-12”, “burn or growth reduction” for “burn”

Erisyphe cichoracearum = experiment: cucumber powdery mildew curative test; assay type: in vivo; details: Cucumis sativus, 144 h, sprayed day after inoculation, additional 6 days
Source text: Cucumber plants are inoculated with a spore suspension of the fungus Erisyphe cichoracearum and in a growth room overnight. The following day, the plants are sprayed to the point of run-off with a suspension prepared by dissolving compounds of this invention in acetone in an amount equal to 6% of the final volume and then suspended at a concentration of 20 ppm in purified water containing 25 ppm of the surfactant Alkanol® XC (sodium alkyl naphthalene sulfonate). Plants are returned to the growth room for an additional 6 days when disease ratings are then made. […] Phytotoxicity in the form of foliar burn or growth reduction was observed on some of the plants in association with disease control.

Erysiphe cichoracearum [5] = experiment: cucumber powdery mildew residual wash-off test; assay type: in vivo; details: Golovinomyces cichoracearum, 168 h, 1/2 inch simulated rainfall, 7 days
Protocol: Compounds of this invention are dissolved in acetone in an amount equal to 6% of the final volume and then suspended at a concentration of 20 ppm in purified water containing 25 ppm of the surfactant Alkanol® XC (sodium alkyl naphthalene sulfonate). This suspension is sprayed to the point of run-off on cucumber seedlings. The following day, 1/2 inch of simulated rainfall is applied to the foliage of the plants. When the foliage is dry, the plants are inoculated with a spore suspension on the fungus Erysiphe cichoracearum and incubated in a growth room for 7 days. Disease ratings are then made.

Erysiphe cichoracearum [6] = experiment: cucumber powdery mildew photostability test; assay type: in vivo; details: Golovinomyces cichoracearum, 168 h, xenon arc 3500 foot candles 16 hours, 7 days
Protocol: Compounds of this invention are dissolved in acetone in an amount equal to 6% of the final volume and then suspended at a concentration of 20 ppm in purified water containing 25 ppm of the surfactant Alkanol® XC (sodium alkyl naphthalene sulfonate). This suspension is sprayed to the point of run-off in cucumber seedlings. When the foliage is dry, the plants are exposed to 3500 foot candles of light from a xenon arc source for a period of 16 hours. This light source approximates the spectrum of natural sunlight, and is used to assess photostability of the compounds of this invention on plant foliage. The following day, the plants are inoculated with a spore suspension of the fungus Erysiphe cichoracearum and incubated in a growth room for 7 days. Disease ratings are then made.

[7] = test system: Puccinia graminis var. tritici; experiment: whole plant or invertebrate; assay type: in vivo; details: 192 h, read-out: % control wheat rust in preventive test
[8] = test system: Puccinia graminis var. tritici; experiment: whole plant or invertebrate; assay type: in vivo; details: 192 h, read-out: % control wheat rust in residual wash-off test
[9] = test system: Puccinia graminis var. tritici; experiment: whole plant or invertebrate; assay type: in vivo; details: 192 h, read-out: % control wheat rust in a photostability test
Phytophthora infestans [10] = experiment: whole plant or invertebrate; assay type: in vivo; details: in Solanum lycopersicum, 96 h, read-out: % control tomato late blight in a residual wash-off test
Phytophthora infestans [11] = experiment: whole plant or invertebrate; assay type: in vivo; details: in Solanum lycopersicum, 96 h, read-out: % control tomato late blight in a photostability test
Rhizopus = experiment: Rhizopus-corn meal mixture overspray test; details: 168 h, read-out: % control Rhizopus
Protocol: Compounds of this invention were dissolved in acetone in an amount equal to 6% of final volume and then suspended at a concentration of 100 ppm in purified water containing 500 ppm of the surfactant Alkanol® XC (sodium alkyl naphthalene sulfonate). This solution was oversprayed on a Rhizopus-corn meal mixture in 6 cm aluminum cups. The sprayed plates were placed in a closed plastic bag, stored at 20° C. for 7 days, and then rated.
The untreated cups were completely covered with Rhizopus mycelial growth, but the treated cups were mostly free of growth by this disease-causing organism.

Sclerotinia sclerotiorum = experiment: white mold on carrot sections dip test; details: 100 ppm dip, 20° C., six days
Protocol: Surface-sterilized carrot sections were dipped two minutes in a 100 ppm solution of the compounds of this invention. Additional sections were dipped in a check solution which contained 500 ppm Alkanol® XC (sodium alkyl naphthalene sulfonate). After inoculation by placing a mycelial plug of Sclerotinia sclerotiorum on each carrot section, the test was held at 20° C. for six days.
The untreated carrot sections were completely invaded with the mycelial growth of white mold fungus, but the treated sections had little or no growth by this disease causing organism.

[12] = test system: organo-phosphorous resistant two-spotted spider mites; experiment: organo-phosphorous resistant two-spotted spider mites on bean plants, spray, mortality after two days; details: Tetranychus urticae, 48 h, read-out: % Mortality (2 days)
[13] = test system: Eggs of the beet armyworm (Spodoptera exigua); experiment: beet armyworm egg (ovicidal) test, % eggs failing to hatch; assay type: in vivo; details: 72 h, 200 ppm in acetone, three days, read-out: % Control (% eggs failing to hatch)
Protocol: Eggs of the beet armyworm (Spodoptera exigua), laid on cellophane discs each containing 50-75 eggs, were placed in petri dishes and lightly sprayed with 1% concentrations of the indicated compounds in acetone solution. Three days later, percent control (% eggs failing to hatch) was determined.
Eggs of the beet armyworm (Spodoptera exigua), laid on cellophane discs each containing 50-75 eggs, were placed in petri dishes and lightly sprayed with 200 ppm concentration of the indicated compounds in acetone solution. Three days later, percent control (% eggs failing to hatch) was determined.

[14] = test system: adult cotton boll weevils (Anthonomus grandis); experiment: adult cotton boll weevils spray test; assay type: in vivo; details: 1% acetone solution, 24 hours
Protocol: Five adult cotton boll weevils (Anthonomus grandis) were confined in a 4-oz. wide mouth jar. These were sprayed with a 1% acetone solution of the indicated compounds. Percent mortality after 24 hours is set forth below.

adult houseflies = adult houseflies spray test; assay type: in vivo, housefly; details: Musca domestica; 1% acetone solutions, 24 hours
Source text: Twenty adult houseflies were confined in each of several cylindrical stainless steel cages (7.5 cm D×4 cm high) with wire screens of the ends. These were sprayed with 1% acetone solutions of the indicated compounds.

[15] = test system: red-legged grasshoppers (Melanoplus femurrubrum); experiment: red-legged grasshoppers spray test; assay type: in vivo; details: 10 ppm in acetone, 48 hours
Protocol: Five red-legged grasshoppers (Melanoplus femurrubrum) were confined in each of several cylindrical stainless steel cages (7.5 cm D×4 cm high) with wire screens at the end. These were sprayed with 10 ppm concentration of the indicated compounds in acetone solution. Percent mortality after 48 hours is recorded below.

[16] = test system: brown dog ticks (Rhipicephalus sanguineus); experiment: brown dog ticks spray test; assay type: in vivo; details: 48 h, 12.5 ppm in acetone, forty eight hours
Protocol: Four-ounce wide mouth jars, each containing 10 brown dog ticks (Rhipicephalus sanguineus), were sprayed with 12.5 ppm concentration of the indicated compounds in acetone solution. The ticks were confined with caps which were also sprayed. Forty eight hours later, percent mortality was determined.

Row | SMILES | pest or weed control at 20 ppm (Venturia inaequalis [1]) [%] | pest or weed control at 20 ppm (Venturia inaequalis [2]) [%] | pest or weed control at 20 ppm (Venturia inaequalis [3]) [%] | pest or weed control at 20 ppm (Erysiphe cichoracearum [4]) [%] | pest or weed control at 20 ppm (Erisyphe cichoracearum) [%] | pest or weed control at 20 ppm (Erysiphe cichoracearum [5]) [%] | pest or weed control at 20 ppm (Erysiphe cichoracearum [6]) [%] | pest or weed control at 20 ppm [7] [%] | pest or weed control at 20 ppm [8] [%] | pest or weed control at 20 ppm [9] [%] | pest or weed control at 20 ppm (Phytophthora infestans [10]) [%] | pest or weed control at 20 ppm (Phytophthora infestans [11]) [%] | % control White Mold (Sclerotinia sclerotiorum) [%] | further results
1 | Cc1ccc(S(=O)(=O)N(SN(c2cc(C(F)(F)F)ccc2Cl)c2c([N+](=O)[O-])cc([N+](=O)[O-])cc2C(F)(F)F)C(C)C)cc1 | 100 | 100 | 0 | 100 | 90 | 99 | 40 | 100 | 97 | 80 | 100 | 90 | 100 | mortality at 0.00025 % (two-spotted mites; spray concentration .00025%): 100%; mortality at 0.0005 % (two-spotted mites; spray concentration .0005%): 100%; mortality at 0.001 % (two-spotted mites; spray concentration .001%): 100%; inhibition of growth at 100 ppm (Rhizopus): 100%; mortality at 0.0005 % [12]: 83%; mortality at 0.001 % [12]: 99%; mortality at 0.002 % [12]: 99%
2 | CCCCN(SN(c1cc(C(F)(F)F)ccc1Cl)c1c([N+](=O)[O-])cc([N+](=O)[O-])cc1C(F)(F)F)S(=O)(=O)c1ccccc1 | 100 | 100 | 0 | 100 | 50 | 98 | 0 | 100 | 97 | 90 | 100 | 90 | 86 | mortality at 200 ppm [13]: 100%; mortality at 1 % [14]: 100%; mortality at 1 % (adult houseflies): 100%; mortality at 10 ppm [15]: 100%; mortality at 12.5 ppm [16]: 100%
